Assay results as given in patent publication US20260007680A1, “Compounds and Their Use as PDE4 Activators” (Mironid Limited, priority 2022, published 2026).

target: T1, PDE4D5 (Homo sapiens, UniProt Q08499); assay: PDE assay, activation of PDE4D5 long form (Experiment 1); type: biochemical; details: 100 μM test compound; mean % increase in counts over basal activity
T1 construct: Using Full-Length Human PDE4 Isoforms; Long Forms PDE4D5, PDE4C3, PDE4B1 and Short Form PDE4B2; made in house; cytosol fraction of cell lysate
Procedure: One suitable method of detecting whether or not a compound is capable of serving as an activator of a PDE4 long form is using a two-step radio-assay procedure described in Experiment 1. In summary, the method involves incubating a PDE4 long form with a test small molecule activator, together with [^3H]-labelled cAMP to assess alterations in the breakdown of cAMP to the 5′-adenosine monophosphate (5′-AMP) product. A sample of the reaction mixture from such an incubation is subsequently treated with snake venom 5′-nucleotidase to allow conversion of the nucleotide [^3H]-labelled 5′-AMP to the uncharged nucleoside [^3H]-labelled adenosine, which can be separated and quantified to assess PDE4 activity and the effect of the test compound (Thompson, W. J. and Appleman, M. M. Biochemistry 10: 311-316, 1971, with some modifications as described in: Marchmont, R. J. and Houslay, M. D. Biochem J. 187: 381-92, 1980).
Experiment 1: Measurement of Modulation of Enzyme Activity by PDE4 Long Form Activators of the Present Invention Using Full-Length Human PDE4 Isoforms; Long Forms PDE4D5, PDE4C3, PDE4B1 and Short Form PDE4B2 • (Marchmont, R. J. and Houslay, M. D. Biochem. J. 187: 381-92, 1980)
For transient transfection of exogenous PDE4 long isoforms, HEK 293 cells were transfected with pcDNA3.1 or pDEST^TM PDE4 expression vectors using Lipofectamine LTX/Plus reagent (Invitrogen) as outlined by the manufacturer.
Where stable cell lines were generated the clonal isolates were expanded to obtain cell lines that stably expressed the full-length human PDE4 long isoforms and the full length human PDE4B2 short isoform. These were called the HEK-PDE4D5, HEK-PDE4B1 and HEK-PDE4B2 cell lines, respectively.
HEK-PDE4D5 cells were seeded out in 100 mm plates and incubated at 37° C. in an atmosphere of 5% CO2, 95% air. Cell lysates were prepared using KHEM buffer [50 mM KCl, 10 mM EGTA, 50 mM HEPES (pH 7.2), 1.92 mM MgCl2].
To prepare the cell lysates, the 100 mm plates containing the cells were placed on ice and washed with ice-cold PBS (phosphate buffered saline, pH 7.4). KHEM buffer (500 μL) was added to the cells. Cells were then scraped off the plate and triturated using a needle (BD Microlance™ 0.8, 40 mm). The lysed cells were then centrifuged at 2000 rpm for 10 minutes to remove cell debris and the supernatant (cell lysate containing recombinant PDE4D5) was transferred to a fresh tube and kept on ice.
The cell lysate containing recombinant PDE4D5 was transferred into a centrifuge tube and placed into an ultracentrifuge (BECKMAN COULTER) and spun at high speed (100,000 g) for 30 minutes at 4° C. The cytosol fraction was then collected and its protein amount determined using a BCA protein assay.
PDE assays were performed in thin walled V-bottomed 96-well plates. The assays were performed at a final concentration of 10 mM Tris/5 mM MgCl2 plus PDE4D5 cell lysate cytosol fraction, containing over-expressed PDE4D5, with and without test compound. The lysate/compound mix were incubated together for 15 min at room temperature on an orbital shaker prior to addition of [^3H] cAMP (final concentration 1 μM [^3H] cAMP; Perkin Elmer) to a final volume of 50 μL per reaction. The reactions were then incubated for 10 minutes at 30° C., terminated by heating for 2 min at 95° C. and allowed to cool. Snake venom (12.5 μL of 1 mg/mL; Crotalus atrox, Sigma) was then added and the plates were agitated and incubated for a further 15 minutes at 30° C. Dowex ion exchange resin (Sigma, chloride form, 200-400 mesh; 200 μL; prepared as a 1:1 Dowex:water stock, thoroughly re-suspended and diluted 2:1 with ethanol) was then added to each well and the plates incubated for 15 min at room temperature on an orbital shaker ensuring sufficient agitation for resin suspension (550 RPM). The reaction mixture was then transferred to a 96 well filter plate (Millipore; 0.45 μm pore size) and filtered into a receiving 96-well plate to remove the dowex suspension. […]

T1 sequence (Q08499 1-745 isoform Q08499-6): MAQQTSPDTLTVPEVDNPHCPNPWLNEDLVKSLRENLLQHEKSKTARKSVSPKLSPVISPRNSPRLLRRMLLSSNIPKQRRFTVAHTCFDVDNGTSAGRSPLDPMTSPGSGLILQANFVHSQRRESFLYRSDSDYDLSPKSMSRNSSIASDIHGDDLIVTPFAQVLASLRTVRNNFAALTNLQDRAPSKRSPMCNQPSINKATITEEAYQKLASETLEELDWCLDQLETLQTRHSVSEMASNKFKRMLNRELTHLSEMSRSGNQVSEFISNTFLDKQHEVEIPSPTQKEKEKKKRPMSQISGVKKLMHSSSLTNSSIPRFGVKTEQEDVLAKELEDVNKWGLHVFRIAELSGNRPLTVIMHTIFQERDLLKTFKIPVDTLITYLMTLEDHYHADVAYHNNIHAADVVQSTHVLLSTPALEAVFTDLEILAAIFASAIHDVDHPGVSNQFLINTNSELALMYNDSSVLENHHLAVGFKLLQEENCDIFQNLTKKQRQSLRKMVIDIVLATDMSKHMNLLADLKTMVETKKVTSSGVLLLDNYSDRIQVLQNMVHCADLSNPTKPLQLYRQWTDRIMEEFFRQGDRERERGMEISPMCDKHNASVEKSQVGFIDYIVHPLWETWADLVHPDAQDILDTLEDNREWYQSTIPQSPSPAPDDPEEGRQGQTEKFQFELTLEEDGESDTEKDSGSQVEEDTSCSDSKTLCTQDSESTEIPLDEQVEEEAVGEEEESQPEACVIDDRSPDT

Structure (SMILES) | activation at 100 µM [%]
O=C(N[C@@H]1CCOc2ccc(Cl)cc21)c1ccc2[nH]c(-c3cccnc3)nc2c1 [Example 11, (R)—N-(6-chlorochroman-4-yl)-2-(pyridin-3-yl)-1H-benzo[d]imidazole-5-carboxamide] | 35

system: m-IMCD3 cells; assay: Inhibition of PGE2-stimulated in vitro cyst formation in 3D culture of m-IMCD3 cells (Experiment 4); type: cell-based, mouse; details: 3D culture
Procedure: HEK 293 and MDCK cells (Public Health England, Cell Culture Collections) were maintained in Dulbecco's Modified Eagle's Medium (DMEM) supplemented with 10% (v/v) fetal bovine serum (FBS) (Seralab), 2 mM L-glutamine and 100 U/ml penicillin streptomycin cocktail (ThermoFisher); termed complete media. Clonal HEK 293 cell lines were maintained in complete media supplemented with 0.6 mg/mL G418 (Enzo Life Sciences). Mouse inner medullary collecting duct (m-IMCD3) cells [American Type Culture Collection (ATCC)] were maintained in media consisting of DMEM/Hams F-12 50/50 Mix (DMEM F12; Corning) supplemented with penicillin streptomycin cocktail (100 U/ml) and FBS (10% v/v) (DMEM F12-10% FBS).
The mouse Inner Medullary Collecting Duct cell line (m-IMCD3) spontaneously forms cystic spheroids in 3D culture with a Type 1 collagen/Matrigel extracellular matrix. This process can be stimulated with agents which raise intracellular cAMP and is used as an in vitro model for the formation of cystic structures in the kidneys of patients with ADPKD.
Rat Collagen I (Fisher Scientific) is prepared on ice by neutralising with 1 M NaOH and diluting with a 2×volume of DMEM/F12+10% FBS. This is mixed 1:1.1 with ice cold Matrigel (Corning) for coating plates (coating mix), and 1:0.93 with Matrigel for cell plating (plating mix).
The assay is conducted in the wells of a 96-well plate culture dish using a total volume of 130 μL of collagen/Matrigel/DMEM F12-10% FBS suspension in growth media for each matrix plug per individual well. Initially, 30 μL of collagen/Matrigel/DMEM F12-10% FBS (coating mix) is added into the well of a 96 well plate and the collagen is set to a gel by incubating at 37° C. for at least 15 minutes. A second layer of 100 μL collagen/Matrigel suspension (plating mix) containing m-IMCD3 cells (2.75×10^6 m-IMCD3 cells per 96-well plate) is layered over the coating mix and the collagen/Matrigel/cell mix again set to a gel by incubating at 37° C. Cell cultures are maintained at 37° C. in an atmosphere of 5% CO2, 95% air.
Between 18 and 24 h after plating, test compound(s) as DMSO stock solutions [0.1% (v/v) final DMSO concentration] and PGE2 (100 nM final concentration) in DMEM F12-10% FBS are added in quadruplicate wells per condition. Media, together with the test compound and PGE2 are replenished after 2 or 3 days. After 6 days of culture z stack images of the wells are captured using the Nikon Eclipse Ti2-E microscope. Nikon General Analysis software is used to measure the following parameters in each well: the mean cyst area, the number of cysts, and the total cyst area.
PDE4 long form activators inhibited in vitro cyst formation in m-IMCD3 cells. Data are shown in FIG. 2 and Table 4 as mean cyst area (%), compared to 100% for (DMSO+PGE2) and 0% for DMSO control.

Structure (SMILES) | inhibition of PGE2-stimulated cyst formation in m-IMCD3 cells (FIG. 2, text)
CCN1CCC(c2nc3ccc(C(=O)N[C@H]4CCOc5ccccc54)cn3n2)CC1 [Example 51, (S)—N-(chroman-4-yl)-2-(1-ethylpiperidin-4-yl)-[1,2,4]triazolo[1,5-a]pyridine-6-carboxamide] | concentration-dependent inhibition

same assay, conditions: Mus musculus, mIMCD3, 144 h, 10 μM test compound, mean cyst area compared to 100% for (DMSO + PGE2) and 0% for DMSO control, read-out: % Cyst area* after incubation with 10 μM test compound

Structure (SMILES) | activity at 10 µM [%]
CN1CCC(c2cc3ncc(C(=O)NC4CCCCC4)cn3n2)CC1 [Example 86, N-cyclohexyl-2-(1-methylpiperidin-4-yl)pyrazolo[1,5-a]pyrimidine-6-carboxamide] | 7
Cn1c(N2CCNCC2)nc2cc(C(=O)N[C@H]3CCOc4ccccc43)ccc21 [Example 33, (S)—N-(chroman-4-yl)-1-methyl-2-(piperazin-1-yl)-1H-benzo[d]imidazole-5-carboxamide] | 19
CCN1CCN(c2cc3ncc(C(=O)N[C@H]4CCc5ccccc54)cn3n2)CC1 [Example 75, (S)—N-(2,3-dihydro-1H-inden-1-yl)-2-(4-ethylpiperazin-1-yl)pyrazolo[1,5-a]pyrimidine-6-carboxamide] | 19
Cc1ccc(-c2nc3cc(C(=O)N[C@H]4CCOc5ccccc54)ccc3n2C)cn1 [Example 21, (S)—N-(chroman-4-yl)-1-methyl-2-(6-methylpyridin-3-yl)-1H-benzo[d]imidazole-5-carboxamide] | 3
CC(C)N1CCN(c2nc3cc(C(=O)N[C@H]4CCOc5ccccc54)ccn3n2)CC1 [Example 61, (S)—N-(chroman-4-yl)-2-(4-isopropylpiperazin-1-yl)-[1,2,4]triazolo[1,5-a]pyridine-7-carboxamide] | 10
CN1CCN(c2cc3ncc(C(=O)NC4CCCC4)cn3n2)CC1 [Example 76, N-cyclopentyl-2-(4-methylpiperazin-1-yl)pyrazolo[1,5-a]pyrimidine-6-carboxamide] | 9
Cc1ncccc1-c1nc2cc(C(=O)N[C@H]3CCOc4ccccc43)ccc2n1C [Example 22, (S)—N-(chroman-4-yl)-1-methyl-2-(2-methylpyridin-3-yl)-1H-benzo[d]imidazole-5-carboxamide] | 18
O=C(NC1CCC(F)(F)CC1)c1cc2sc(N3C4CCC3CNC4)nc2cn1 [Example 120, 2-(3,8-diazabicyclo[3.2.1]octan-8-yl)-N-(4,4-difluorocyclohexyl)thiazolo[4,5-c]pyridine-6-carboxamide] | 29
CCN1CCN(c2nc3cc(C(=O)NC4CCCC4)ccc3o2)CC1 [Example 103, N-cyclopentyl-2-(4-ethylpiperazin-1-yl)benzo[d]oxazole-5-carboxamide] | -1
O=C(N[C@H]1CCOc2ccccc21)c1ccn2nc(N3CCCCC3)nc2c1 [Example 59, (S)—N-(chroman-4-yl)-2-(piperidin-1-yl)-[1,2,4]triazolo[1,5-a]pyridine-7-carboxamide] | 26
O=C(NC1CCCC1)c1cnc2cc(N3C4CCC3CNC4)nn2c1 [Example 80, 2-(3,8-diazabicyclo[3.2.1]octan-8-yl)-N-cyclopentylpyrazolo[1,5-a]pyrimidine-6-carboxamide] | 14
Cc1c(C(=O)NC2CCC(F)(F)CC2)cnc2cc(C3CCNCC3)nn12 [Example 91, N-(4,4-difluorocyclohexyl)-7-methyl-2-(piperidin-4-yl)pyrazolo[1,5-a]pyrimidine-6-carboxamide] | 5
Cc1ncccc1-c1nc2cc(C(=O)N[C@H]3CCOc4ccccc43)ccn2n1 [Example 52, (S)—N-(chroman-4-yl)-2-(2-methylpyridin-3-yl)-[1,2,4]triazolo[1,5-a]pyridine-7-carboxamide] | 19
O=C(NC1CCCC1)c1ccc2oc(N3CCNCC3)nc2c1 [Example 101, N-cyclopentyl-2-(piperazin-1-yl)benzo[d]oxazole-5-carboxamide] | 21
CCN1CCC(c2cc3ncc(C(=O)NC4CCC(F)(F)CC4)c(C)n3n2)CC1 [Example 94, N-(4,4-difluorocyclohexyl)-2-(1-ethylpiperidin-4-yl)-7-methylpyrazolo[1,5-a]pyrimidine-6-carboxamide] | 13
Cn1c(N2CCNCC2)nc2ccc(C(=O)N[C@H]3CCOc4ccccc43)cc21 [Example 31, (S)—N-(chroman-4-yl)-1-methyl-2-(piperazin-1-yl)-1H-benzo[d]imidazole-6-carboxamide] | 3
CCN1CCC(c2nc3ccc(C(=O)N[C@H]4CCOc5ccccc54)cn3n2)CC1 [Example 51, (S)—N-(chroman-4-yl)-2-(1-ethylpiperidin-4-yl)-[1,2,4]triazolo[1,5-a]pyridine-6-carboxamide] | 6
